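In this assay, cells in 96-well plates receive the compound at five concentrations for 48 hours. Endpoints are linearly interpolated between the surrounding concentrations. Here, GI50 denotes the concentration required for 50% inhibition of growth. The concentration for full growth arrest is given as TGI.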
What was measured:
Test in all cases: NCI anticancer screen, dose series, 48 h
[1] = test system: DU-145 prostate
[2] = test system: NCI-H226 lung
[3] = test system: T-47D breast
[4] = test system: RPMI-8226 leukemia
[5] = test system: SF-268 CNS
[6] = test system: SK-OV-3 ovarian
[7] = test system: NCI-H460 lung
[8] = test system: HL-60(TB) leukemia
[9] = test system: MALME-3M melanoma
[10] = test system: SNB-19 CNS
[11] = test system: HOP-92 NSCLC
[12] = test system: UACC-257 melanoma
[13] = test system: NCI-H23 lung
[14] = test system: LOX IMVI melanoma
[15] = test system: OVCAR-3 ovarian
[16] = test system: U251 CNS
[17] = test system: HT29 colon
[18] = test system: MDA-MB-231 breast
[19] = test system: RXF 393 renal
[20] = test system: NCI/ADR-RES ovarian
[21] = test system: SK-MEL-2 melanoma
[22] = test system: SR leukemia
[23] = test system: UO-31 renal
[24] = test system: A498 renal
[25] = test system: SF-539 CNS
[26] = test system: IGROV1 ovarian
[27] = test system: MDA-MB-435
[28] = test system: CCRF-CEM leukemia
[29] = test system: KM12 colon
[30] = test system: OVCAR-4 ovarian
[31] = test system: HS 578T breast
[32] = test system: SK-MEL-5 melanoma
[33] = test system: SNB-75 CNS
[34] = test system: TK-10 renal
[35] = test system: MCF7 breast
[36] = test system: NCI-H522 lung
[37] = test system: BT-549 breast
[38] = test system: A549 NSCLC
[39] = test system: SW-620 colon
[40] = test system: HCT-116 colon
[41] = test system: OVCAR-5 ovarian
[42] = test system: M14 melanoma
[43] = test system: HOP-62 NSCLC
[44] = test system: OVCAR-8 ovarian
[45] = test system: CAKI-1 renal
[46] = test system: SK-MEL-28 melanoma
[47] = test system: SN12C renal
[48] = test system: K-562 leukemia
[49] = test system: UACC-62 melanoma
[50] = test system: MOLT-4 leukemia
[51] = test system: HCC-2998 colon
[52] = test system: HCT-15 colon
[53] = test system: PC-3 prostate
[54] = test system: COLO 205 colon
[55] = test system: ACHN renal
[56] = test system: 786-0 renal

## COC(=O)[C@@H](Cc1c[nH]c2ccccc12)NC(=O)/C=C/c1ccccc1
[1]
  GI50: 4.58 µM
  TGI: > 100 µM
[2]
  GI50: 6.06 µM
  TGI: > 100 µM
[3]
  GI50: 8.41 µM
  TGI: > 100 µM
[4]
  GI50: 3.48 µM
  TGI: 33.7 µM
[5]
  GI50: 4.52 µM
  TGI: > 100 µM
[6]
  GI50: 3.15 µM
  TGI: > 100 µM
[7]
  GI50: 3.26 µM
  TGI: 15.1 µM
[8]
  GI50: 2.33 µM
  TGI: 5.71 µM
[9]
  GI50: > 100 µM
  TGI: > 100 µM
[10]
  GI50: 7.31 µM
  TGI: > 100 µM
[11]
  GI50: 0.235 µM
  TGI: 4.29 µM
[12]
  GI50: 9.03 µM
  TGI: > 100 µM
[13]
  GI50: 4.32 µM
  TGI: > 100 µM
[14]
  GI50: 3.73 µM
  TGI: > 100 µM
[15]
  GI50: 2.83 µM
  TGI: 7.78 µM
[16]
  GI50: 3.16 µM
  TGI: 41.6 µM
[17]
  GI50: 3.9 µM
  TGI: 14.1 µM
[18]
  GI50: 2.93 µM
  TGI: 8.63 µM
[19]
  GI50: 1.5 µM
  TGI: 4.58 µM
[20]
  GI50: 2.53 µM
  TGI: > 100 µM
[21]
  GI50: 6.63 µM
  TGI: > 100 µM
[22]
  GI50: 2.98 µM
  TGI: 11.6 µM
[23]
  GI50: 3.68 µM
  TGI: > 100 µM
[24]
  GI50: 0.511 µM
  TGI: 6.75 µM
[25]
  GI50: 1.95 µM
  TGI: 5.29 µM
[26]
  GI50: 7.07 µM
  TGI: > 100 µM
[27]
  GI50: 0.782 µM
  TGI: 3.91 µM
[28]
  GI50: 3.45 µM
  TGI: > 100 µM
[29]
  GI50: 4.13 µM
  TGI: 33.5 µM
[30]
  GI50: 5.71 µM
  TGI: > 100 µM
[31]
  GI50: 1.81 µM
  TGI: 7.88 µM
[32]
  GI50: 3.14 µM
  TGI: 13.8 µM
[33]
  GI50: 2.42 µM
  TGI: > 100 µM
[34]
  GI50: 17.9 µM
  TGI: > 100 µM
[35]
  GI50: 3.2 µM
  TGI: > 100 µM
[36]
  GI50: 1.81 µM
  TGI: 30.5 µM
[37]
  GI50: 4.1 µM
  TGI: 71.8 µM
[38]
  GI50: 3.91 µM
  TGI: > 100 µM
[39]
  GI50: 4.07 µM
  TGI: > 100 µM
[40]
  GI50: 3.36 µM
  TGI: > 100 µM
[41]
  GI50: 5.43 µM
  TGI: > 100 µM
[42]
  GI50: 3.05 µM
  TGI: > 100 µM
[43]
  GI50: 3.62 µM
  TGI: > 100 µM
[44]
  GI50: 3.6 µM
  TGI: > 100 µM
[45]
  GI50: 3.42 µM
  TGI: > 100 µM
[46]
  GI50: 4.43 µM
  TGI: > 100 µM
[47]
  GI50: 4.49 µM
  TGI: > 100 µM
[48]
  GI50: 2.74 µM
  TGI: > 100 µM
[49]
  GI50: 3.97 µM
  TGI: > 100 µM
[50]
  GI50: 3.57 µM
  TGI: > 100 µM
[51]
  GI50: 2.65 µM
  TGI: 8.56 µM
[52]
  GI50: 3.31 µM
  TGI: > 100 µM
[53]
  GI50: 3.22 µM
  TGI: 68.2 µM
[54]
  GI50: 12.4 µM
  TGI: 50.3 µM
[55]
  GI50: 4.08 µM
  TGI: > 100 µM
[56]
  GI50: 3.96 µM
  TGI: > 100 µM

Source: PubChem BioAssay (NCI)
